“Also recorded” adds a separate entry of the source. No end group written: not given here.
Assays:
human IL-2 = test: NK92 cell proliferation assay (WST-1), IL-2; type: cell-based; conditions: 24 h
Procedure: Human peripheral blood mononuclear cells were purified by the Ficoll-paque gradient centrifugation (GE-Healthcare) and stimulated by PHA (5 μg ml^−1, Sigma) for 48 h, then expanded with IL-2 (0.5 nM, Peprotech) for 48h, and then depleted of non-T cells by the Pan-T cell negative enrichment Ab cocktails (Miltenyi). The purified T cells were then fasted of IL-2 overnight prior to the proliferation assay by the tetrazolium dye method. Four hundred thousand cells (in 200 μl culture) were incubated with the cytokines and BNZ132-1 at the indicated concentrations for 24 h, and 20 μl WST1 reagent (Clontech) was added to each well. After 12 h incubation, OD450 was measured. The assay was performed in triplicate. […] NK 92 cells were cultured in human IL-2. Cells were washed to withdraw IL-2 for overnight and two hundred thousand cells (in 200 μl volume) were incubated with the indicated concentrations of the cytokine and BNZ132-1 for 24 h before 20 μl WST-1 reagent (Clontech) was added to each well to measure proliferative response. Absorbance at 450 nm was read at 6 h after the addition of the WST-1 dye. The assay was performed in triplicate. The assay was performed in triplicate and the figure represents a typical result out of 5 different HAM-TSP patients.
FIG. 8B, and FIG. 8C show the results of NK92 cell proliferation assay. NK92 cells responded to IL-2 and IL-15. […]

human IL-7 = test: Human peripheral T-cell (PBMC) proliferation assay, IL-7; type: cell-based; conditions: ex vivo human primary T cells, 10 nM human IL-7
Procedure: FIG. 6A-FIG. 6E presents inhibitory spectrum of BNZ132-1 over γc- and non-γc-cytokines. […] Neutralizing antibodies against each cytokine (R & D systems, 5 μg ml^−1) were included as controls. After 20 h, the cells were pulsed with WST-1 (Clontech) and OD450 of each well was measured after 6 h. A 19-mer scrambled peptide was used as a negative control at 5 μM. The experiments were conducted in triplicate (applies to all experiments in FIG. 6A-FIG. 6E). The result represents one of at least three independent experiments (applies to all experiments in FIG. 6A-FIG. 6E). […] In PT-18 proliferation assay, PT-18β or PT-18h21Rα cells were withdrawn of mouse IL-3 for 12 h before the experiment. Cells were then incubated with 1 nM of mouse IL-4, mouse IL-9, or mouse IL-21 in the presence or absence of the indicated doses (μM) of BNZ132-1. Neutralizing antibodies to each cytokine (5 μg ml^−1, except for anti-mouse IL-21 polyclonal antibody which was used at 15 μg ml−1) and a scrambled control peptide (5 μM) were included as negative controls. WST-1 assay was conducted as described above. […] In PT-18 h21Rα survival assay, PT-18h21Rα cells are described in the text. […] Both parental and hIL-21Rα positive PT-18 cells were washed and incubated without IL-3 for 12 h before the assay. […] The Y-axis represents the cpm (count per minute) values measured by a β-counter. […]

IKEFLQRFIHIVQSIINTS [BNZ132-1]
inhibition of IL-2-induced proliferation of NK92 cells (human IL-2): dose-dependent manner; also recorded: dose-dependent inhibition | inhibition of IL-7-induced proliferation of ex vivo human T cells (human IL-7): not significantly inhibited; also recorded: no inhibition of IL-7

Reference: patent publication US10854312B2, “Selective peptide antagonists” (BIONIZ, LLC, priority 2013, dated 2020)
